Consider 67 compounds from BindingDB's records for doi:10.1021/jm00126a013 (University of California, 1989).

Each structure is given as a SMILES string. Some results are limits rather than exact numbers.

The IC50 is the concentration at which inhibition is half-maximal. A low value points to greater potency.

The first experiment addresses Vesicular acetylcholine transporter (Torpedo californica). The experiment can be described thus: Inhibition of active transport of [3H]acetylcholine using purified Torpedo californica synaptic vesicles.
For the compound `O=C(CCCCC1SCC2NC(=O)NC21)NCC(=O)NCC(=O)Nc1cccc2c1CC(N1CCC(c3ccccc3)CC1)C(O)C2` (configuration not stated), half-maximal inhibition (IC50) required 200 nM. That is a sub-micromolar value.

The compound `O[C@@H]1[C@H](O)CCC[C@H]1N1CCC(c2ccccc2)CC1` displayed an IC50 of 100 nM. Compared with the last compound, the IC50 is about 2-fold lower.

`OC1CCCCC1N1CCCCC1` (configuration not stated) registered an IC50 greater than 40000 nM.

`CCC(O)C[N+]1(C)CCC(c2ccccc2)CC1` (configuration not stated) yielded an IC50 of 2000 nM.

Regarding `CC1(c2ccccc2)CCCN(C2CCCCC2O)C1` (configuration not stated), inhibition was half-maximal at 4000 nM (IC50).

Take `OC1CCCCC1N1CC=C(c2ccc(Cl)cc2)CC1` (configuration not stated): inhibition was half-maximal at 200 nM (IC50).

Compound `OC1CCCCC1N1C=NC(c2ccccc2)C1` (configuration not stated) registered a half-inhibitory concentration (IC50) of 40000 nM.

Take `Nc1cccc2c1CC(N1CCC(c3ccccc3)CC1)C(O)C2` (configuration not stated): the half-inhibitory concentration (IC50) amounted to 100 nM. This IC50 is about 400-fold lower than that of the compound before.

`O=C(CCCCC1SCC2NC(=O)NC21)Nc1cccc2c1CC(N1CCC(c3ccccc3)CC1)C(O)C2` (configuration not stated) had an IC50 of 100 nM.

The compound `CC(=O)OCC[N+]1(C)CCC(c2ccccc2)CC1` (configuration not stated) showed a concentration for half-maximal inhibition (IC50) of 4000 nM.

Consider `OC1CCCCC1N1CCN(c2ccccc2)CC1` (configuration not stated), for which half-maximal inhibition (IC50) was put at 300 nM.

The compound `CN(CCCc1ccccc1)C1CCCCC1O` (configuration not stated) gave a concentration for half-maximal inhibition (IC50) of 2000 nM. Against the preceding compound, the IC50 is about 6.7-fold higher.

Compound `C[N+]1(CCO)CCC(c2ccccc2)CC1` (configuration not stated) registered an IC50 of 8000 nM.

Compound `Nc1ccc(C2CCN(C3CCCCC3O)CC2)cc1` (configuration not stated) returned a concentration for half-maximal inhibition (IC50) of 500 nM. Compared with the last compound, the IC50 is about 16-fold lower.

Turning to `CC(=O)OC1CCCCC1N1CCC(c2ccccc2)CC1` (configuration not stated), the IC50 was determined as 2000 nM.

For `CN(CCc1ccccc1)C1CCCCC1O` (configuration not stated), half-maximal inhibition (IC50) required 20000 nM.

As to `CNc1ccc(C2CCN(C3CCCCC3O)CC2)cc1` (configuration not stated), the IC50 was determined as 400 nM.

`O=C(O)CCC(=O)Nc1cccc2c1CC(N1CCC(c3ccccc3)CC1)C(O)C2` (configuration not stated) displayed an IC50 of 50 nM.

The compound `OC1CCCCC1N1CC=C(c2ccccc2)CC1` (configuration not stated) returned an IC50 of 200 nM.

As for `OC1CN(C2CCCCC2O)CCC1c1ccccc1` (configuration not stated), the midpoint of inhibition, the IC50, lay at 200 nM. This lies in the sub-micromolar range.

In turn, `COc1ccc2c3c1OC1C(O)C=CC4C(C2)N(C2CCCCC2O)CCC341` (configuration not stated) displayed a half-inhibitory concentration (IC50) of 80000 nM.

On to `OC1CCCCC1NC1CCc2ccccc21` (configuration not stated), for which half-maximal inhibition (IC50) required 3000 nM.

`CC(C)(C)[C@H]1CC[C@@H](N2CCC(c3ccccc3)CC2)[C@H](O)C1` gave an IC50 of 90 nM.

The compound `O=C(O)CCC(=O)Nc1cccc2c1CC(O)C(N1CCC(c3ccccc3)CC1)C2` (configuration not stated) came in with a half-maximal inhibitory concentration (IC50) of 500 nM.

In the case of `CC(=O)Nc1ccc(I)c2c1CC(N1CCC(c3ccccc3)CC1)C(O)C2` (configuration not stated), half-maximal inhibition (IC50) was put at 300 nM.

As for `O=c1[nH]c2ccccc2n1C1CCN(C2CCCCC2O)CC1` (configuration not stated), half-maximal inhibition (IC50) was put at 1000 nM.

In turn, `O=C(Nc1cccc2c1CC(O)C(N1CCC(c3ccccc3)CC1)C2)C(F)(F)F` (configuration not stated) gave an IC50 of 2000 nM.

The compound `CN(C)c1ccc(C2CCN(C3CCCCC3O)CC2)cc1` (configuration not stated) came in with an IC50 of 300 nM. Compared with the last compound, the IC50 is about 6.7-fold lower.

As to `CCC(CN1CCC(c2ccccc2)CC1)OC(C)=O` (configuration not stated), the half-maximal inhibitory concentration (IC50) came out at 800 nM.

In the case of `CCC(O)CN1CCC(c2ccccc2)CC1` (configuration not stated), the IC50 was determined as 300 nM. Against the preceding compound, the IC50 is about 2.7-fold lower.

Consider `CC1(O)CCCC[C@H]1N1CCC(c2ccccc2)CC1` (some centres not stated), for which the concentration for half-maximal inhibition (IC50) turned out to be 6000 nM.

The compound `OC1CCCCC1N1CCC(c2ccc(Cl)cc2)CC1` (configuration not stated) displayed a concentration for half-maximal inhibition (IC50) of 100 nM. Compared with the last compound, the IC50 is about 60-fold lower.

`CC1CN(C2CCCCC2O)CCN1c1ccccc1` (configuration not stated): the IC50 was found to be 300 nM.

Compound `OC1CCCCC1N1CCN(Cc2ccc3c(c2)OCO3)CC1` (configuration not stated) gave a 50% inhibitory concentration (IC50) of 300 nM.

Compound `OC1CCCCC1N1CCC(CCC2CCN(C3CCCCC3O)CC2)CC1` (configuration not stated) registered an IC50 greater than 1000 nM.

On to `SC1CCCCC1N1CCC(c2ccccc2)CC1` (configuration not stated), for which the half-inhibitory concentration (IC50) amounted to 4000 nM. This lies in the single-digit micromolar range.

The compound `Cc1ccc(C)c(N2CCN(C3CCCCC3O)CC2)c1` (configuration not stated) gave a half-inhibitory concentration (IC50) of 100 nM.

`CC(=O)Nc1ccc(C2CCN(C3CCCCC3O)CC2)cc1` (configuration not stated) had an IC50 of 20000 nM. Compared with the last compound, the IC50 is about 200-fold higher.

Compound `O=C1CCC2(O)C3Cc4ccc(O)c5c4C2(CCN3C2CCCCC2O)C1O5` (configuration not stated) showed an IC50 greater than 100000 nM.

Take `CC(=O)OCCN1CCC(c2ccccc2)CC1`: the IC50 worked out at 9000 nM.

Turning to `CN(Cc1ccccc1)C1CCCCC1O` (configuration not stated), the IC50 worked out at 10000 nM.

For `OC1CCCCC1N1CCC(Cc2ccccc2)CC1` (configuration not stated), the IC50 stood at 300 nM.

With `CC(=O)OC1CCCCC1[N+]1(C)CCC(c2ccccc2)CC1` (configuration not stated), the half-maximal inhibitory concentration (IC50) was 5000 nM.

In the case of `O=[N+]([O-])c1ccc(C2CCN(C3CCCCC3O)CC2)c([N+](=O)[O-])c1` (configuration not stated), the IC50 is 300 nM.

Compound `OC1CCCCC1N1CCC(CCCc2ccccc2)CC1` (configuration not stated) returned a concentration for half-maximal inhibition (IC50) of 70 nM.

In the case of `CC(=O)Nc1cccc2c1CC(O)C(N1CCC(c3ccccc3)CC1)C2` (configuration not stated), the IC50 was greater than 2000 nM.

For the compound `O[C@H]1[C@H](N2CCC(c3ccccc3)CC2)CCC[C@H]1c1ccccc1`, the IC50 was 600 nM.

The compound `OC[C@H]1CC[C@@H](O)[C@H](N2CCC(c3ccccc3)CC2)C1` showed an IC50 of 800 nM.

Take `OC1CCCCC1N1CCC(CCCC2CCN(C3CCCCC3O)CC2)CC1` (configuration not stated): half-maximal inhibition (IC50) required 200 nM.

For `OC1CCCCC1N1CC2CCC(CC2)C1` (configuration not stated), the IC50 is 20000 nM.

In turn, `O=[N+]([O-])c1ccc(C2CCN(C3CCCCC3O)CC2)cc1` (configuration not stated) came in with a concentration for half-maximal inhibition (IC50) of 100 nM. This IC50 is about 200-fold lower than that of the compound before.

In turn, `OC1C2CCC1C(N1CCC(c3ccccc3)CC1)C2` (configuration not stated) returned an IC50 of 10000 nM.

In turn, `Nc1cccc2c1CC(O)C(N1CCC(c3ccccc3)CC1)C2` (configuration not stated) registered an IC50 of 300 nM.

In turn, `OC1CCCC1N1CCC(c2ccccc2)CC1` (configuration not stated) came in with an IC50 of 2000 nM. Against the preceding compound, the IC50 is about 6.7-fold higher.

Consider `O=C(c1ccccc1)N1CCN(C2CCCCC2O)CC1` (configuration not stated), for which half-maximal inhibition (IC50) required 10000 nM.

Take `O=C1CCCCC1N1CCC(c2ccccc2)CC1` (configuration not stated): half-maximal inhibition (IC50) was put at 40000 nM.

Take `C[N+]1(C2CCCCC2O)CCC(c2ccccc2)CC1` (configuration not stated): the concentration for half-maximal inhibition (IC50) is greater than 1000 nM.

`OCCN1CCC(c2ccccc2)CC1` showed an IC50 of 10000 nM.

`CO[C@H]1CCC[C@@H](N2CCC(c3ccccc3)CC2)[C@@H]1O` showed an IC50 of 2000 nM. Compared with the last compound, the IC50 is about 5-fold lower.

As for `Cc1ccccc1N1CCN(C2CCCCC2O)CC1` (configuration not stated), the IC50 came to 100 nM.

Regarding `OC1CCCCC1N1CCC(C2CCN(C3CCCCC3O)CC2)CC1` (configuration not stated), the 50% inhibitory concentration (IC50) amounted to 200 nM.

For `COc1ccc(N2CCN(C3CCCCC3O)CC2)cc1` (configuration not stated), it took 300 nM to reach half-maximal inhibition (IC50).

In turn, `O[C@@H]1CCCC[C@H]1CN1CCC(c2ccccc2)CC1` showed an IC50 of 2000 nM.

On to `O[C@H]1CCCC[C@H]1CN1CCC(c2ccccc2)CC1`, for which the IC50 stood at 1000 nM.

Consider `O=C(CCC(=O)Nc1cccc2c1CC(N1CCC(c3ccccc3)CC1)C(O)C2)NNC(=O)CCC(=O)Nc1cccc2c1CC(N1CCC(c3ccccc3)CC1)C(O)C2` (configuration not stated) [N-[6-Hydroxy-7-(4-phenyl-piperidin-1-yl)-5,6,7,8-tetrahydro-naphthalen-1-yl]-4-(N'-{3-[6-hydroxy-7-(4-phenyl-piperidin-1-yl)-5,6,7,8-tetrahydro-naphthalen-1-ylcarbamoyl]-propionyl}-hydrazino)-4-oxo-butyramide], for which the concentration for half-maximal inhibition (IC50) came out at 1000 nM.

For `CC(C)(C)[C@H]1CC[C@@H](O)[C@H](N2CCC(c3ccccc3)CC2)C1` [trans-(4S)-4-tert-butyl-2-(4-phenylpiperidin-1-yl)cyclohexanol], half-maximal inhibition (IC50) required 20 nM.

A further experiment has the same target. The description is as above. This is another data set of the same source.
Regarding `COc1ccccc1N1CCN(C2CC3CCCCC3CC2O)CC1` (configuration not stated), the IC50 stood at 300 nM.
